This is an account of results in patent US8729074B2, “Inhibitors of PI3 kinase” (Amgen Inc., priority 2009, dated 2014).

The target in assay [1] is PI3Kα (Homo sapiens (Human), UniProt P42336). The experiment in a line: In vitro PI3K AlphaScreen assay. In kind it is biochemical. The following applies: average if run more than once. The procedure:
In Vitro PI3K AlphaScreen® Assay
The PI3K AlphaScreen® assay (PerkinElmer, Waltham, Mass.) measures the activity of a panel of four phosphoinositide 3-kinases: PI3Kα, PI3Kβ, PI3Kγ, and PI3Kδ. Each of these enzymes phosphorylates the 3′-hydroxyl group on phosphatidylinositiol (4,5)-bisphosphate (PIP2) to produce phosphatidylinositol (3,4,5)-trisphosphate (PIP3). This phosphorylation activity is measured using a GST-tagged PIP3 binding protein (Echelon Biosciences, Salt Lake City, Utah), an anti-GST-tagged Acceptor bead, and streptavidin-Donor bead. […] In the absence of this interaction, proximity of the Donor and Acceptor beads is decreased, producing a loss of luminescent signal which is inversely proportional to PI3K activity.
The enzyme reaction buffer is made using sterile water (Baxter, Deerfield, Ill.) and 50 mM Tris HCl pH 7, 14 mM MgCl2, 2 mM sodium cholate, and 100 mM NaCl. 2 mM DTT is added fresh the day of the experiment. The AlphaScreen® reaction buffer is made using sterile water and 10 mM Tris HCl pH 7.5, 150 mM NaCl, 0.10% Tween 20, and 30 mM EDTA. 1 mM DTT is added fresh the day of the experiment.
The source plates for this assay are 384-well Greiner clear polypropylene plates containing test compounds at 5 mM and diluted 1:2 over 22 points. Columns 23 and 24 contain only DMSO as these are designated for positive and negative controls. Source plates are replicated into 384-well Optiplates (PerkinElmer, Waltham, Mass.), 0.5 μL/well, to make assay-ready plates.
The different PI3K isoforms are each diluted in enzyme reaction buffer to 2× working solutions. […] Two different 2× substrate solutions are made in enzyme reaction buffer. In one solution, PI(4,5)P2 (Echelon Biosciences, Salt Lake City, Utah) is diluted to 10 μM and ATP is diluted to 20 μM. This solution is used in the assays testing PI3Kα and PI3Kβ. In a second solution, PI(4,5)P2 is diluted to 10 μM and ATP is diluted to 8 μM. This solution is used in the assays testing PI3Kγ and PI3Kδ.
The AlphaScreen® reaction solutions are made using beads from the anti-GST AlphaScreen® kit (PerkinElmer, Waltham, Mass.). Two solutions are made in Alphascreen reaction buffer to 4× working concentrations. In one solution, biotinylated-IP4 (Echelon Biosciences, Salt Lake City, Utah) is diluted to 40 nM and streptavadin-Donor Beads are diluted to 80 μg/mL. In the second solution, PIP3-binding protein (Echelon Biosciences, Salt Lake City, Utah) is diluted to 40 nM and anti-GST-Acceptor Beads are diluted to 80 μg/mL. 10 μL/well of enzyme reaction buffer is added to Column 24 of the assay ready plates in place of enzyme. This is done for plates in the PI3Kα, β, and δ assays.
Using a 384-well dispensing Multidrop (Titertek, Huntsville, Ala.), 10 μL/well of 2× enzyme (PI3Kα, β, δ) is added to Columns 1-23 of the appropriate assay ready plates (for PI3Kγ 10 μL is added to Columns 1-24). 10 μL/well of the appropriate substrate solution (the solution with 20 μM ATP for PI3Kα and β assays, and the solution with […] for PI3Kγ and δ assays) is then added to Columns 1-24 of the plates. Plates are then incubated at room temperature for 20 minutes.
In the dark, 10 μL/well of the Donor Bead solution is added to Columns 1-24 of the plates to quench the enzyme reaction. The plates are incubated at room temperature for 30 minutes. Still in the dark, 10 μL/well of the Acceptor Bead solution is also added to Columns 1-24 of the plates. The plates are then incubated in the dark for 1.5 hours. The plates are read on an Envision Multilabel Plate Reader (PerkinElmer, Waltham, Mass.) with a 680 nm excitation filter and a 520-620 nm emission filter.
Activity data for the compounds tested in the assay is provided in Table 1 under the column heading PI3Kα AlphaScreen®.

Assay [2] deals with mTOR (Homo sapiens (Human), UniProt P42345). The experiment in a line: In vitro mTOR Lanthascreen assay. The following applies: average if run more than once. The class given is biochemical. From the text:
The Invitrogen (Carlsbad, Calif.) mammalian target of rapamycin (mTOR) Lanthascreen assay can be used to quantitate mTOR kinase activity in an in vitro setting. Active mTOR phosphorylates eukaryotic translation initiation factor 4E binding protein 1 (4E-BP1) on residue threonine 46. This phosphorylation event can be detected with a phospho-specific terbium (Tb) labeled Ab, in turn bringing the Tb label in close proximity to the GFP tagged 4E-BP 1 and allowing for time-resolved fluorescence resonance energy transfer (TR-FRET), which correlates 4E-BP1 phosphorylation levels with mTOR kinase activity.
Enzyme reaction buffer can be prepared in deionized water containing 50 mM HEPES (pH 7.5), 0.01% Polysorbate 20, 1 mM EGTA, and 10 mM MnCl2.
Dilutions of the compound to be tested can be prepared in 96-well polypropylene plates (Fisher Scientific, Waltham, Mass.). One row represents a 10-point dose of compound diluted 1:3 in enzyme reaction buffer and 20% dimethyl sulfoxide (DMSO). The top concentration for all compounds is 36 μM. Wells 6 and 12 can serve as the no compound (DMSO only) and high compound controls.
An mTOR substrate solution can prepared in enzyme reaction buffer containing 1600 nM green fluorescent protein tagged eukaryotic translation initiation factor 4E binding protein 1 (GFP-4E-BP1) (Invitrogen, Carlsbad, Calif.) and 28 uM adenosine triphosphate (ATP) (Calbiochem, Gibbstown, N.J.).
mTOR enzyme (Invitrogen, Carlsbad, Calif.) can be diluted in enzyme reaction buffer to a working concentration of 100 ng/mL.
The enzyme assay can be run in 384 well low volume assay plates (Corning, Corning, N.Y.). 2.5 uL of substrate solution containing GFP-4E-BP1 and ATP can be added to appropriate wells in the assay plate followed by 2.5 μL of compound dilutions. 5 μL of appropriately diluted mTOR enzyme can be added and the reaction allowed to proceed for 1 hour at room temperature. Final reagent concentrations in the enzyme assay are 50 ng/mL mTOR, 400 nM GFP-4E-BP1, and 7 μM ATP.
The enzyme assay can be terminated upon the addition of 10 μL of 20 mM EDTA and 4 nM Tb-labeled anti-phospho-4E-BP1 [T46] antibody (Invitrogen, Carlsbad, Calif.). The assay plate can then be incubated at room temperature for 1 hour and results read on a Tecan Safire II plate reader (Tecan, Männedorf, Switzerland).
A general note: Time-resolved FRET reads energy transfer from a long-lived donor to a nearby acceptor.

mTOR, sequence (P42345 1360-2549): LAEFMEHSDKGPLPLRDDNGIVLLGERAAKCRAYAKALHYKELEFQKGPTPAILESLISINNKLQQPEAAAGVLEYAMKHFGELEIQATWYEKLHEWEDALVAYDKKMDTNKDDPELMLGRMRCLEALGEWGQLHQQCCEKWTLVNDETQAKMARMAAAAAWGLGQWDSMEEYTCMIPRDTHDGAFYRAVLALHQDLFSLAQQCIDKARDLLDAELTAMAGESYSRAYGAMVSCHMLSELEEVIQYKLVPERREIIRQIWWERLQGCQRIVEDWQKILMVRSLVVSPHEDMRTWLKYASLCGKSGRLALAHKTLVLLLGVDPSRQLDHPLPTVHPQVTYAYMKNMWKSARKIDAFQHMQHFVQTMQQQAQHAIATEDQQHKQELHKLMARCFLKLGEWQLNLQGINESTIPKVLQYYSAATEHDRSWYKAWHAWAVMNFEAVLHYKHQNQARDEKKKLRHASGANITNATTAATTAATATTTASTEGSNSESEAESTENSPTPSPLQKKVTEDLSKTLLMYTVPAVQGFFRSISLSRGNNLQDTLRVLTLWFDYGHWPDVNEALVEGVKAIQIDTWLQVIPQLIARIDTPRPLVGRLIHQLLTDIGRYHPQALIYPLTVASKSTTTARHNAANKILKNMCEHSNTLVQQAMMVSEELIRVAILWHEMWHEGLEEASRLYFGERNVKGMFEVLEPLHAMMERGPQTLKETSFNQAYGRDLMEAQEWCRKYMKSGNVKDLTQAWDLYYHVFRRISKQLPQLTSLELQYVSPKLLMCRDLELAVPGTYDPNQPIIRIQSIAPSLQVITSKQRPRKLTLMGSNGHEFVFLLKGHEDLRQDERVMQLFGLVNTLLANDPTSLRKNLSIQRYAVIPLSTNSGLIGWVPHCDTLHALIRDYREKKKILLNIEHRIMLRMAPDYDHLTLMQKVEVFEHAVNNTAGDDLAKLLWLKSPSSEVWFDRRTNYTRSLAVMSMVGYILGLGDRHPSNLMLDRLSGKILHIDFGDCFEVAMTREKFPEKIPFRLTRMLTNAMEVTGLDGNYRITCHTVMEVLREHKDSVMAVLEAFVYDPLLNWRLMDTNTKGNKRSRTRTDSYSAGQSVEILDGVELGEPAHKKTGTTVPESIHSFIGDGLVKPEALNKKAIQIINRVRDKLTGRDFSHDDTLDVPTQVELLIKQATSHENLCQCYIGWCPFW
PI3Kα, sequence (P42336 whole entry): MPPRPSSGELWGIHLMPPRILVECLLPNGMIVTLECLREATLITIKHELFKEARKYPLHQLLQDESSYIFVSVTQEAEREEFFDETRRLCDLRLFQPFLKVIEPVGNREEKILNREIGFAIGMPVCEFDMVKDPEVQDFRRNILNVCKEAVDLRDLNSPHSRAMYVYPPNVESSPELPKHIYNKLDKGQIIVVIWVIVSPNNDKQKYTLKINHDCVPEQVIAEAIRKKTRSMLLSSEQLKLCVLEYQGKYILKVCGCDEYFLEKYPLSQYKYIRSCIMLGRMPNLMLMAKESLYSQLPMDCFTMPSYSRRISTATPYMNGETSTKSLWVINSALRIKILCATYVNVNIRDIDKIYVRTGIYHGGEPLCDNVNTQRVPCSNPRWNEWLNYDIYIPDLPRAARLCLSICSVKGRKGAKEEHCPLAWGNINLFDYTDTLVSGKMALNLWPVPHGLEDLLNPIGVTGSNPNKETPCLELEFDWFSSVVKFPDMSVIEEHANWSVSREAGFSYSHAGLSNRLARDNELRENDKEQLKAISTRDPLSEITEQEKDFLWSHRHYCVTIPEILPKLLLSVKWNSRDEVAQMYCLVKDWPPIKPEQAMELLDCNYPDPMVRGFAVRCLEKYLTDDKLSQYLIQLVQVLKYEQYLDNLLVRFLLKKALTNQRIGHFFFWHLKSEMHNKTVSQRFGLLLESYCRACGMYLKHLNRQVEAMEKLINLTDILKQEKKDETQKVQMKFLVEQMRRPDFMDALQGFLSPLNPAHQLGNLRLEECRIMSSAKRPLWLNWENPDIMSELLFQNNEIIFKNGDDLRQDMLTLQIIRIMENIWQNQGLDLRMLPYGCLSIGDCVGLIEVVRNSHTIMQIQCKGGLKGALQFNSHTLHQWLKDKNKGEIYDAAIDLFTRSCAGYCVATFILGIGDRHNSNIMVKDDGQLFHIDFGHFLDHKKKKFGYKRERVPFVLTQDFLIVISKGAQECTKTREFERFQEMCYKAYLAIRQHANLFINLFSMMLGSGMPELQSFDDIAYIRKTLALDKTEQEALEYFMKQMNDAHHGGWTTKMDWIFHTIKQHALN
PI3Kα, sequence (P27986 whole entry partner): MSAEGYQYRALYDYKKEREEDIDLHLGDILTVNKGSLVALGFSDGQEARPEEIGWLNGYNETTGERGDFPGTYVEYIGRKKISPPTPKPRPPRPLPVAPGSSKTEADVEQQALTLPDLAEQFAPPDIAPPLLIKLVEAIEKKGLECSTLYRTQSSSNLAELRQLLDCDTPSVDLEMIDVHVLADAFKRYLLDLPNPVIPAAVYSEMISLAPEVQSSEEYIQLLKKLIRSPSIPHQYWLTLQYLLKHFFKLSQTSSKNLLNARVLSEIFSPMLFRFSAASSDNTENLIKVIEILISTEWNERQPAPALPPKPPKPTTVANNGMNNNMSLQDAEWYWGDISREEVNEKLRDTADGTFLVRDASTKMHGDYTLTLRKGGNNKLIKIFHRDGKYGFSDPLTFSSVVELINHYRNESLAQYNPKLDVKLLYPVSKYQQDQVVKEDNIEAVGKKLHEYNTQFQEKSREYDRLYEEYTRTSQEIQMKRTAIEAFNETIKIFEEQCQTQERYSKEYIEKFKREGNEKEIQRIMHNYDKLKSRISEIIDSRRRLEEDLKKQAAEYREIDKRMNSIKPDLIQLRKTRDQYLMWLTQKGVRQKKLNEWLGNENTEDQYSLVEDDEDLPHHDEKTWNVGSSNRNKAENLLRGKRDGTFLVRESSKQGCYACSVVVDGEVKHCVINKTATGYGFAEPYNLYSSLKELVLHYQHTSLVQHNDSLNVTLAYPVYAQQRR

For orientation: Ki means the dissociation constant of the complex between target and ligand, obtained from inhibition or displacement. Low values mean higher affinity, high ones lower affinity. The IC50 is the point on the concentration scale where inhibition reaches its midpoint. Regarding `O=S(=O)(Nc1cc(-c2cnc3ccccn23)cnc1Cl)c1ccc(F)cc1` [Example 3, N-(2-Chloro-5-imidazo[1,2-a]pyridin-3-yl-3-pyridinyl)-4-fluorobenzenesulfonamide], the inhibition constant Ki in assay [1] worked out at 28 nM. The compound further yielded an IC50 in assay [2] of 155 nM.
For `Cc1ccn2c(-c3cnc(Cl)c(NS(=O)(=O)c4ccc(F)cc4)c3)cnc2c1` [Example 4, N-(2-Chloro-5-(7-methylimidazo[1,2-a]pyridin-3-yl)-3-pyridinyl)-4-fluorobenzenesulfonamide], in assay [1], the affinity, expressed as Ki, was 19 nM.
Compound `Cc1nc2ccc(Br)cn2c1-c1cnc(Cl)c(NS(=O)(=O)c2ccc(F)cc2)c1` [Example 5, N-(5-(6-Bromo-2-methylimidazo[1,2-a]pyridin-3-yl)-2-chloro-3-pyridinyl)-4-fluorobenzenesulfonamide] came in with an inhibition constant (Ki) in assay [1] of 20 nM. Further, in assay [2], half-maximal inhibition (IC50) was put at 848 nM.
The like results for `O=S(=O)(Nc1cc(-c2cnc3ccc(Br)cn23)cnc1Cl)c1ccc(F)cc1` [Example 6, N-(5-(6-Bromoimidazo[1,2-a]pyridin-3-yl)-2-chloro-3-pyridinyl)-4-fluorobenzenesulfonamide] were, in that order, 6 nM and 39 nM.
Compound `O=S(=O)(Nc1cc(-c2cnc3ccc(-c4ccncc4)cn23)cnc1Cl)c1ccc(F)cc1` [Example 7, N-(2-Chloro-5-(6-(4-pyridinyl)imidazo[1,2-a]pyridin-3-yl)-3-pyridinyl)-4-fluorobenzenesulfonamide] showed a Ki in assay [1] of 2 nM. In assay [2], this compound came in with an IC50 of 36 nM.
`O=S(=O)(Nc1cc(-c2cnc3ccc(-c4cccnc4)cn23)cnc1Cl)c1ccc(F)cc1` [Example 8, N-(2-Chloro-5-(6-(3-pyridinyl)imidazo[1,2-a]pyridin-3-yl)-3-pyridinyl)-4-fluorobenzenesulfonamide]: affinity in assay [1] was put at a Ki of 1 nM. The IC50 in assay [2] came out at 32 nM.
In turn, `O=S(=O)(Nc1cc(-c2cnc3ccc(N4CCOCC4)cn23)cnc1Cl)c1ccc(F)cc1` [Example 9, N-(2-Chloro-5-(6-(4-morpholinyl)imidazo[1,2-a]pyridin-3-yl)-3-pyridinyl)-4-fluorobenzenesulfonamide] returned a Ki in assay [1] of 4 nM. This compound had a half-maximal inhibitory concentration (IC50) in assay [2] of 364 nM.
Taken in the same sequence, the figures for `COc1cc(-c2cnc3ccccn23)cnc1OC` [Example 10, 3-(5,6-Dimethoxy-3-pyridinyl)imidazo[1,2-a]pyridine] were more than 1500 nM and more than 50000 nM.
The like results for `COc1cc(-c2cnc3ccc(Br)cn23)cnc1OC` [Example 11, 6-Bromo-3-(5,6-dimethoxy-3-pyridinyl)imidazo[1,2-a]pyridine] were, in that order, 779 nM and 2170 nM.
The like results for `COc1cc(-c2cnc3ccc(-c4ccncc4)cn23)cnc1OC` [Example 12, 3-(5,6-Dimethoxy-3-pyridinyl)-6-(4-pyridinyl)imidazo[1,2-a]pyridine] were, in that order, 626 nM and 3750 nM.
`COc1cc(-c2cnc3ccc(N4CCOC4=O)cn23)cnc1OC` [Example 13, 3-(3-(5,6-Dimethoxy-3-pyridinyl)imidazo[1,2-a]pyridin-6-yl)-1,3-oxazolidin-2-one] yielded a Ki in assay [1] of more than 1500 nM. In assay [2], this compound came in with an IC50 of 9660 nM.
Taken in the same sequence, the figures for `COc1cc(-c2cnc3ccc(N4CCOCC4)cn23)cnc1OC` [Example 16, 3-(5,6-Dimethoxy-3-pyridinyl)-6-(4-morpholinyl)imidazo[1,2-a]pyridine] were 1080 nM and 4520 nM.
Taken in the same sequence, the figures for `CN(C)S(=O)(=O)Nc1cc(-c2cnc3ccc(-c4ccncc4)cn23)cnc1Cl` [Example 18, N-(2-Chloro-5-(6-(pyridin-4-yl)imidazo[1,2-a]pyridin-3-yl)pyridin-3-yl)dimethylaminosulfonamide] were 1 nM and 15 nM.
The like results for `CN(C)S(=O)(=O)Nc1cc(-c2cnc3ccc(-c4ccnc(C(F)(F)F)c4)cn23)cnc1Cl` [Example 19, N-(2-Chloro-5-(6-(2-(trifluoromethyl)pyridin-4-yl)imidazo[1,2-a]pyridin-3-yl)pyridin-3-yl)dimethylaminosulfonamid] were, in that order, 1 nM and 15 nM.
In assay [1], `CS(=O)(=O)Nc1cc(-c2cnc3cc(-c4cccnc4)ccn23)cnc1Cl` [Example 20, N-(2-Chloro-5-(7-(pyridin-3-yl)imidazo[1,2-a]pyridin-3-yl)pyridin-3-yl)methanesulfonamide] had a Ki of 5 nM. In addition, half-maximal inhibition in assay [2] (IC50) required 32 nM.
Taken in the same sequence, the figures for `CN(C)S(=O)(=O)Nc1cc(-c2cnc3cc(-c4ccncc4)ccn23)cnc1Cl` [Example 21, N′-(2-Chloro-5-(7-(4-pyridinyl)imidazo[1,2-a]pyridin-3-yl)-3-pyridinyl)-N,N-dimethylsulfamide] were 15 nM and 258 nM.
The like results for `CN(C)S(=O)(=O)Nc1cc(-c2cnc3cc(-c4cccnc4)ccn23)cnc1Cl` [Example 22, N′-(2-Chloro-5-(7-(3-pyridinyl)imidazo[1,2-a]pyridin-3-yl)-3-pyridinyl)-N,N-dimethylsulfamide] were, in that order, 21 nM and 157 nM.
Taken in the same sequence, the figures for `Cc1cc2ncc(-c3cnc(Cl)c(NS(=O)(=O)N(C)C)c3)n2cc1-c1ccncc1` [Example 23, N′-(2-Chloro-5-(7-methyl-6-(4-pyridinyl)imidazo[1,2-a]pyridin-3-yl)-3-pyridinyl)-N,N-dimethylsulfamide] were 4 nM and 18 nM.
Turning to `O=S(=O)(Nc1cc(-c2cnc3ccc(Cl)nn23)cnc1Cl)c1ccc(F)cc1` [Example 25, N-(2-Chloro-5-(6-chloroimidazo[1,2-b]pyridazin-3-yl)pyridin-3-yl)-4-fluorobenzenesulfonamide], in assay [1], the Ki stood at 22 nM. The compound also returned an IC50 in assay [2] of 102 nM.
